From publication PMC7162492, “Pharmacological and pharmacokinetic profile of the novel ocular hypotensive prodrug CKLP1 in Dutch-belted pigmented rabbits” (PLoS ONE, 2020)
Entries after “also recorded” stand apart in the source; their conditions may differ.

Key:
[1] = parameters: method as in earlier work; settings: ref Roy Chowdhury U, Viker KB, Stoltz KL, et al. J Med Chem. 2016;59(13):6221-31; cited from earlier work
[2] = Plasma pharmacokinetics after topical eye drops of CKLP1, days 1, 4 and 8 (LC-MS/MS); type: in vivo, Dutch-belted pigmented rabbits; settings: for AUClast / Clast / Cmax / Tlast / Tmax / half-life: plasma
Procedure: (§1) LC-MS/MS analysis of all fluids were performed using a Waters (Milford, MA) Acquity UPLC BEH C18 column (1.7 μm, 2.1 x 50 mm) with an Agilent EC-C18 pre-column (2.7 μm, 2.1 x 5 mm) and a gradient elution program containing ultra-pure water and acetonitrile with 2.5 mM ammonium formate, at a flow rate of 0.2 ml/min. Flavopiridol was used as an internal standard. The column and auto-sampler temperatures were maintained at 40°C and 4°C, respectively. Source parameters were capillary voltage, 2.6 kV; source temperature, 150°C; desolvation temperature, 500°C; cone gas flow, 150 L/h; and desolvation gas flow, 800 L/h. The cone voltages and collision energies for CKLP1, levcromakalim and flavopiridol were determined by MassLynx-Intellistart software, v4.1, and were 32, 34 and 72 V (cone) and 20, 14 and 30 eV (collision), respectively. The retention times were 4.5 minutes for CKLP1, 5.9 minutes for levcromakalim and 5.7 minutes for flavopiridol.
(§2) To validate accurate measurement of CKLP1 and levcromakalim, known concentrations of CKLP1 (5, 10, 25, 50, 100, 250, 500 ng/ml) and levcromakalim (1, 5, 10, 25, 50, 100, 250 ng/ml) were added to human plasma (obtained from the Mayo Clinic Division of Transfusion Medicine under an Institutional Review Board approved protocol) to make calibration curves. Quality control was determined for each run by using known quantities of CKLP1 and levcromakalim to verify that the instrument recorded values consistent with the established standard curve. The effect of carryover was evaluated by injecting blank samples before and after running the standard samples for calibration curves. Unknown samples with signal to noise ratios >10 were recorded as acceptable concentrations. Samples with signal to noise ratios <10 were reported as not detectable (ND). Controls consisted of a double blank (without analytes and internal standard) and a single blank (only internal standard). The linearity of the calibration curves was determined by plotting the ratios of analytes to internal standard peak areas. The curve was fitted by least squares regression with a 1/x weighting for both CKLP1 and levcromakalim. Data was collected from 3–6.4 minutes for CKLP1 and 4–8 minutes for both levcromakalim and flavopiridol. Waters MassLynx Intellistart software v4.1 was used for analysis.
(§3) All experiments with animals were pre-approved by the Institutional Animal Care and Use Committee of the Mayo Clinic, Rochester, MN and adhered to the recommendations in the Guide for the Care and use of Laboratory Animals of the National Institutes of Health, and the tenets of the ARVO Statement for the Use of Animals in Vision Research. Female Dutch-belted pigmented rabbits (age 7 months) were obtained from Covance Research Products, Inc. (Denver, PA). Rabbits were housed in pairs and kept in a climate controlled room with 12 h light and dark cycles. Animals had unrestrained access to water and standard rabbit food pellets at all times. Upon receipt, animals were acclimated for at least 5 days before initiation of the experiment. IOP was measured with a handheld rebound tonometer (Icare Tonovet, Colonial Medical Supply, Franconia, NH, USA) in conscious and minimally restrained, non-anesthetized rabbits as previously described. Briefly, daily IOP was calculated from the average of 3 independent IOP measurements at 3 different time points each day. These time points corresponded to 1 h, 4 h and 23 h post treatment on any given day. Rabbits that needed to be handled for IOP were subjected to sham IOP measurements for two days prior to initiation of experiment. Rabbits (n = 3) were injected intravenously through the right ear vein with CKLP1 as a bolus dose equal to 0.25 mg/kg body weight. Additional rabbits were treated topically through instillation of 50 μl eye drops of a 10 mM (4.1 mg/ml) solution of CKLP1 in sterile PBS. […]

[3] = Plasma pharmacokinetics after single intravenous injection of CKLP1 (LC-MS/MS); type: in vivo, Dutch-belted pigmented rabbits; settings: rabbit, intravenous 0.25 mg/kg CKLP1
Procedure: as §1, §2, §3

[4] = test system: Dutch-belted pigmented rabbits; experiment: Tolerability observation during topical CKLP1 treatment for 1, 4 or 8 days; type: in vivo; settings: topical CKLP1 both eyes for 1, 4 or 8 days
Excerpt: as §3, with “experiment.” for “experiment. Rabbits (n = 3) were injected intravenously through the right ear vein with CKLP1 as a bolus dose equal to 0.25 mg/kg body weight. Additional rabbits were treated topically through instillation of 50 μl eye drops of a 10 mM (4.1 mg/ml) solution of CKLP1 in sterile PBS.”

[5] = Concentration in aqueous and vitreous humor after topical CKLP1 for 1, 4 or 8 days (LC-MS/MS); type: in vivo, Dutch-belted pigmented rabbits; settings: topical CKLP1 both eyes, days 1, 4 and 8, collected after the 24 h blood sample
Procedure: as §1, §2, §3

[6] = eye drops 10 mM CKLP1 both eyes once daily, Day 4
[7] = eye drops 10 mM CKLP1 both eyes once daily, Day 8
[8] = eye drops 10 mM CKLP1 both eyes, Day 1

sodium [CKLP1, sodium [(3S,4R)-6-cyano-2,2-dimethyl-4-(2-oxopyrrolidin-1-yl)-chroman-3-yl phosphate]]
Solubility in water [1]: water soluble
AUClast [2, 6]: 360 ± 82 ng·h/mL
Clast [2, 6]: 4.2 ± 2.6 ng/mL
Cmax [2, 6]: 30.6 ± 7.3 ng/mL
Tlast [2, 6]: 24.0 ± 0.0 h
Tmax [2, 6]: 325.0 ± 268.5 min
half-life [2, 6]: 6.7 ± 2.0 min
AUClast [2, 7]: 341 ± 45.2 ng·h/mL
Clast [2, 7]: 4.2 ± 1.5 ng/mL
Cmax [2, 7]: 36.3 ± 13.3 ng/mL
Tlast [2, 7]: 24.0 ± 0.0 h
Tmax [2, 7]: 20.0 ± 8.7 min
half-life [2, 7]: 7.7 ± 3.0 min
AUClast [2, 8]: 271 ± 55 ng·h/mL
Clast [2, 8]: 5.1 ± 1.1 ng/mL
Cmax [2, 8]: 20.0 ± 6.3 ng/mL
Tlast [2, 8]: 24.0 ± 0.0 h
Tmax [2, 8]: 360.0 ± 207.9 min
half-life [2, 8]: 10.7 ± 4.1 min
Amount in plasma after topical CKLP1 ([2]; topical 10 mM CKLP1 in the eye): trace amounts
AUClast [3]: 2164.0 ± 482.5 ng·h/mL
Clast [3]: 34.9 ± 42.4 ng/mL
Cmax [3]: 1968.5 ± 831.0 ng/mL
Tlast [3]: 5.6 ± 1.8 h
Tmax [3]: 19.8 ± 23.0 min
half-life [3]: 61.8 ± 55.2 min
Tolerability, visible signs of toxicity or discomfort [4]: no visible signs of toxicity or discomfort
Concentration in aqueous humor [5]: No CKLP1 was detected; also recorded: below detectable limits
Concentration in vitreous humor [5]: No CKLP1 was detected; also recorded: below detectable limits
